# Reference: patent publication EP0250254A1, “Cis & trans stilbenes and their composition for the treatment of hypertension” (McNeilab, Inc., priority 1986, dated 1987)
# Counter-ions that a name gives are not always drawn. Like-named read-outs stand apart in the source and are kept apart here. Marks after values point to notes of the source that are not given here.
# Columns and labels:
# coronary arteries = test: Langendorff's isolated heart preparation, increase in coronary flow; conditions: read-out: EC30 (minimum concentration needed to elicit a 30 percent increase in coronary flow)
# Method: In addition to their utility in the treatment of hypertension, the compounds of formula (I) are useful in the treatment of the symptoms of angina pectoris by virtue of their ability to dilate coronary arteries. Their activity was measured using the "Langendorff's isolated heart" preparation. This test has been described in "Pharmacological Experiments on Isolated Preparations", Staff of the Department of Pharmacology, University of Edinborough, 2nd Ed., Churchill Livingstone, N.Y., l970, pp. ll2-ll9. The test compounds were administered at concentrations of 3000, l000, 300, l00, 30, l0, 3, l and 0.3 nanomolar (l0⁻⁹ molar).
# The minimum concentration (EC₃₀) needed to elicit a 30 percent increase in coronary flow is shown in Table I for compounds of the formula (I) with […].
# [1] = tested on: spontaneously hypertensive rats; test: Spontaneously Hypertensive Rat (SHR) test, arterial pressure monitored via aortic cannula; type: in vivo; conditions: SH rats
# Method: The activity of compounds of formula (I) for the treatment of hypertension was determined using the Spontaneously Hypertensive Rat (SHR) test as described below.
# In this test, the arterial pressure of adult spontaneously hypertensive rats (Charles River) is monitored directly via an aortic cannula. The SH rats are anesthetized with an intravenous anesthetic (methohexital). The left carotid artery is isolated and cannulated. The tip of the cannula is advanced to the aorta and the cannula is exteriorized behind the neck at the level of the scapula. Animals are placed in individual cages and allowed to recover from the anesthetic and are kept unrestrained. The arterial cannula is connected to the pressure transducer which is attached to the recorder. The test compounds are administered to at least 3 rats at doses selected in the range of 0.l to l00 mg/kg of body weight by intraperitoneal (i.p.) or oral (p.o.) routes of administration. The arterial pressure and heart rate are monitored for a minimum of 22 hours. A test compound is considered to be active as an antihypertensive agent if the mean arterial pressure (MAp) indicates a fall of >l5 mm of Hg. Each animal serves as its own control.
# The results of this test for compounds of formula (I). expressed as "Max Fall Bp" (Maximum Fall in Mean Arterial pressure) are shown in Table I.
# [2] = dose 30 mg/kg of body weight p.o., salt form tested per footnotes
SMILES,EC30 (coronary arteries; salt form tested per footnotes) [nM],"Max Fall BP (Maximum Fall in Mean Arterial pressure) [1, 2]","Max Fall BP (Maximum Fall in Mean Arterial pressure) ([1]; dose 10 mg/kg of body weight given i.p., tested as the fumarate salt)","Max Fall BP (Maximum Fall in Mean Arterial pressure) ([1]; dose 10 mg/kg of body weight p.o., tested as the chloride salt)",EC30 (coronary arteries; tested as free base) [nM]
"COc1ccc(/C=C\c2ccccc2)c(CC(C)NCCc2c(Cl)cccc2Cl)c1 (stereo not drawn) [Example 2d, N-[2-(2,6-Dichlorophenyl)ethyl]-5-methoxy-α-methyl-2Z-(2-phenylethenyl)benzeneethanamine (E)-2-Butenedioate (2:l)]",55,18 (30) mm of Hg,,,
"COc1cc(CCNC(C)Cc2cc(OC)ccc2/C=C\c2ccccc2)cc(OC)c1 (stereo not drawn) [Example 3c, N-[2-(3,5-Dimethoxyphenyl)ethyl]-5-methoxy-α-methyl-2Z-(2-phenylethenyl)benzeneethanamine (E)-2-Butenedioate (2:l)]",57,,38 (10)^b mm of Hg,,
"COc1ccc(/C=C\c2ccccc2)c(CC(C)NCCc2ccc(OC)c(OC)c2)c1 (stereo not drawn) [Example 4c, N-[2-(3,4-Dimethoxyphenyl)ethyl]-5-methoxy-α-methyl-2Z-(2-phenylethenyl)benzeneethanamine Hydrochloride]",2,21 (30) mm of Hg,,,
"COc1ccc(/C=C/c2ccccc2)c(CCC(C)N(C)CCc2ccc(OC)c(OC)c2)c1 (stereo not drawn) [Example 5, N-[2-(3,4-Dimethoxyphenyl)ethyl]-5-methoxy-N,α-dimethyl-2E-(2-phenylethenyl)benezenepronanamine Hydrochloride]",12,43 (30) mm of Hg,,,
"COc1ccc(/C=C\c2ccccc2)c(CCC(C)N(C)CCc2ccc(OC)c(OC)c2)c1 (stereo not drawn) [Example 6e, N-[2-(3,4-Dimethoxyphenyl)ethyl]-5-methoxy-N,α-dimethyl-2Z-(2-phenylethenyl)benzenepropanamine (E)-2-Butenedioate (2:l)]",19,17 (30) mm of Hg,,,
"COc1ccc(/C=C/c2ccccc2)c(CCCN(C)CCc2ccc(OC)c(OC)c2)c1 [Example 7e, N-[2-(3,4-Dimethoxyphenyl)ethyl]-5-methoxy-N-methyl-2E-(2-phenylethenyl)benzenepropanamine Biscyclohexylsulfamate]",0.4,16 (30) mm of Hg,,,
"COc1ccc(/C=C/c2ccccc2)c(CC(C)NCCc2ccc(OC)c(OC)c2)c1 (stereo not drawn) [Example 8b, N-[2-(3,4-Dimethoxyphenyl)ethyl]-5-methoxy-α-methyl-2E-(2-phenylethenyl)benzeneethanamine Hydrochloride]",1,77 (30) mm of Hg,,80 (10) mm of Hg,
"COc1ccc(/C=C/c2ccccc2)c(CC(C)NCCc2ccc(Cl)c(Cl)c2)c1 (stereo not drawn) [Example 9, N-[2-(3,4-Dichlorophenyl)ethyl)-5-methoxy-α-methyl-2E-(2-phenylethenyl)benzeneethanamine Hydrochloride]",24,90 (30) mm of Hg,,,
"COc1cc(CCNC(C)Cc2cc(OC)ccc2/C=C/c2ccccc2)cc(OC)c1 (stereo not drawn) [Example 10, N-[2-(3,5-Dimethoxyphenyl)ethyl]-5-methoxy-α-methyl-2E-(2-phenylethenyl)benzeneethanamine (E)-2-Butendioate (3:5)]",,53 (30)* mm of Hg,,,1
